From patent US20220111034A1, “VIRUS COMPOSITIONS” (priority 2019, published 2022)

Test system: JAM-A on Lec2-JAM-A cells
Assay: FD-based AFM with virus-functionalized tip on living Lec2-JAM-A cells, with glycan addition
Type: cell-based, human
Details: for T3SA+ adhesion events in the high force range (400 to 500 pN) / T3SA+ binding frequency after glycan injection / T3SA+ binding frequency before glycan injection: Lec2-JAM-A cells; for T3SA+ adhesion events in the high force range (400 to 500 pN): FIG. 8; for T3SA+ binding frequency after glycan injection / T3SA+ binding frequency before glycan injection: FIG. 9; for T3SA+ binding frequency before glycan injection: baseline of the same experiment
Protocol: Engineering and characterization of cell lines expressing JAM-A. Monolayers of CHO (ATCC, #CCL-61) and Lec2 (ATCC, #CRL-1736) cells were transduced with lentiviruses encoding a puromycin resistance gene and human JAM-A or a puromycin resistance gene alone. Transduced cells were selected for puromycin resistance by passaging twice in medium containing 20 μg ml^−1 puromycin. The concentration of puromycin used was the minimal concentration that yielded complete death of non-transduced CHO and Lec2 cells. Following selection for puromycin resistance, cells were further selected for cell surface expression of JAM-A using fluorescence-activated cell sorting (FACS). Cell-surface expression of JAM-A was detected using the monoclonal antibody, J10.4 (Liu et al. Human junction adhesion molecule regulates tight junction resealing in epithelia. J. Cell Sci. 2000, vol. 113, 2363-2374), and a fraction of cells with high JAM-A expression was collected and propagated using puromycin selection. In the ensuing Examples, cells transduced and selected for puromycin resistance alone will be referred to as CHO and Lec2 and those selected for puromycin resistance and JAM-A expression will be referred to as CHO-JAM-A and Lec2-JAM-A, respectively.
Correlative images were acquired on an AFM (Bioscope Catalyst and Bioscope Resolve, Bruker) operated in the PeakForce QNM mode (Nanoscope software v9.2) to conduct FD-based AFM and coupled to an inverted epifluorescence microscope (Zeiss Observer Z.1) as described (Newton et al. 2017, supra; Knoops et al. Specific Interactions Measured by AFM on Living Cells between Peroxiredoxin-5 and TLR4: Relevance for Mechanisms of Innate Immunity. Cell chemical biology 2018, vol. 25, 550-559, e553). A 40× oil objective (NA=0.95) was used. The AFM was equipped with a 150 μm piezoelectric scanner and a cell culture chamber allowing to control the temperature, the humidity and the CO2 concentration as described (Alsteens et al. 2017, supra). Overview images of cell surfaces (20-30 μm^2) were recorded at imaging forces of ˜500 pN using PFQNM-LC probes (Bruker) having tip lengths of 17 μm, tip radii of 65 nm, and opening angles of 15°. All fluorescence microscopy and FD-based AFM imaging experiments were conducted under cell culture conditions using the combined AFM and fluorescence microscopy chamber (FIG. 1a) at 37° C. in either Mem a, nucleosides or Ham's F12 culture medium, depending on the cell type. A gas mixture of synthetic air with 5% CO2 at 95% relative humidity using a gas humidifier membrane (PermSelect silicone) was infused at 0.1 L min^−1 into the microscopy chamber. The humidity was controlled using a humidity sensor (Sensirion). Cantilevers were first calibrated using the thermal noise method (Huffer & Bechhoefer. Calibration of atomic-force microscope tips. Review of Scientific Instruments 1993, vol. 64, 1868-1873), yielding values ranging from 0.095 to 0.135 N m^−1 for PFQNM-LC probes. The AFM tip was oscillated in a sinusoidal fashion at 0.25 kHz with a 750 nm amplitude in the PeakForce Tapping mode. The sample was scanned using a frequency of 0.125 Hz and 256 pixels per line (256 lines). AFM images and FD curves were analyzed using the Nanoscope analysis software (v1.7, Bruker), Origin, and ImageJ (v1.52e). Individual FD curves detecting unbinding events between the virus and cell surface were analyzed using the Nanoscope analysis and Origin software. The baseline of the retraction curve was corrected using a linear fit on the last 30% of the retraction curve. Using the force-time curve, the loading rate (slope) of each rupture event was determined (FIG. 1c). Optical images were analyzed using Zen Blue software (Zeiss) (Alsteens et al. 2017, Newton et al. 2017, Delguste et al. 2018a, Delguste et al. 2018b, all supra).
The live cell experiments were conducted in the same manner as described above by scanning a suitable field of cells, followed by adding 1 mM of the respective glycan to the culture medium. […]

Row | Compound | T3SA+ adhesion events in the high force range (400 to 500 pN) (1 mM glycan) | T3SA+ binding frequency after glycan injection (1 mM glycan) | T3SA+ binding frequency before glycan injection | T3SA+ adhesion events in the high force range after neuraminidase treatment (NA-treated cells, 1 mM glycan, FIG. 17) | increase in T3SA+ binding after glycan injection on neuraminidase-treated cells (neuraminidase 40 mUnit/mL for 1 h, then 1 mM glycan)
1 | CC(=O)N[C@H]1[C@H](O[C@H]2[C@@H](O)[C@@H](CO)O[C@@H](O[C@H]3[C@H](O)[C@@H](O)C(O)O[C@@H]3CO)[C@@H]2O)O[C@H](CO)[C@@H](O[C@@H]2O[C@H](CO)[C@H](O)[C@H](O)[C@H]2O)[C@@H]1O (mixture of isomers) [LNnT, lacto-N-neotetraose, reference compound] | no significant change | 3.9% | 3.8% |  | 
2 | CC(=O)N[C@H]1[C@H]([C@H](O)[C@H](O)CO)OC(O)(C(=O)O)C[C@@H]1O (some centres unmarked) [Neu5Ac, N-acetylneuraminic acid] | more adhesion events in the high force range | 4.9% | 3.9% | more adhesion events in the high force range | ~20%
3 | sialyl-lacto-N-tetraose a [LSTa] | more adhesion events in the high force range | 4.8% | 3.8% |  | 
